Experimental data reported in ChEMBL document CHEMBL3992552, “Mechanisms of action and structure-activity relationships of cytotoxic flavokawain derivatives” (Bioorg Med Chem, 2017).
pIC50: −log10 of the molar value. The source made the active and inactive calls. The rule behind the calls is not given here.

How the values were obtained:
[1] = test system: NCI-H727; assay: Cytotoxicity against human NCI-H727 cells assessed as cell survival at 50 uM after 48 hrs by Hoechst 33342 staining based assay relative to control; type: functional; conditions: NCI-H727, 48 h, read-out: Survival
[2] = test system: HCT-116; assay: Cytotoxicity against human HCT116 cells assessed as cell survival at 50 uM after 48 hrs by Hoechst 33342 staining based assay relative to control; type: functional; conditions: HCT-116, 48 h, read-out: Survival
[3] = test system: Caco-2; assay: Cytotoxicity against human Caco2 cells assessed as cell survival at 50 uM after 48 hrs by Hoechst 33342 staining based assay relative to control; type: functional; conditions: Caco-2, 48 h, read-out: Survival
[4] = test system: HCT-116; assay: Induction of apoptosis in human HCT116 cells harboring wild-type p53 assessed as upregulation of cyclinB1 measured after 48 hrs by Hoechst staining based assay; type: functional, cell-based
[5] = test system: MDA-MB-231; assay: Induction of apoptosis in human MDA-MB-231 cells harboring p53 mutant assessed as upregulation of cyclinB1 after 18 hrs by Hoechst staining based assay; type: functional, cell-based
[6] = test system: Huh-7; assay: Cytotoxicity against human HuH7 cells assessed as cell survival at 50 uM after 48 hrs by Hoechst 33342 staining based assay relative to control; type: functional; conditions: Huh-7, 48 h, read-out: Survival
[7] = test system: HCT-116; assay: Induction of apoptosis in human HCT116 cells harboring wild-type p53 assessed as upregulation of p21 measured after 48 hrs by Hoechst staining based fluorescence assay; type: functional, cell-based
[8] = test system: MDA-MB-231; assay: Induction of apoptosis in human MDA-MB-231 cells harboring p53 mutant assessed as increase in early apoptosis at 2 times IC50 after 24 hrs by YoPro/propidium iodide/Hoechst staining based assay; type: functional, cell-based
[9] = test system: HCT-116; assay: Induction of apoptosis in human HCT116 cells harboring wild-type p53 assessed as increase in late apoptosis at 2 times IC50 after 48 hrs by YoPro/propidium iodide/Hoechst staining based assay; type: functional, cell-based
[10] = test system: MDA-MB-231; assay: Induction of apoptosis in human MDA-MB-231 cells harboring p53 mutant assessed as increase in cleaved caspase3 at 2 times IC50 after 24 hrs by Hoechst staining based assay; type: functional, cell-based
[11] = test system: PC-3; assay: Induction of apoptosis in human PC3 cells harboring p53 mutant assessed as increase in early apoptosis at 2 times IC50 after 48 hrs by YoPro/propidium iodide/Hoechst staining based assay; type: functional, cell-based
[12] = test system: PC-3; assay: Induction of apoptosis in human PC3 cells harboring p53 mutant assessed as increase in late apoptosis at 2 times IC50 after 48 hrs by YoPro/propidium iodide/Hoechst staining based assay; type: functional, cell-based
[13] = Cytotoxicity against human fibroblasts assessed as cell survival at 50 uM after 48 hrs by Hoechst 33342 staining based assay relative to control; parameters: species or system Fibroblast; conditions: read-out: Survival
[14] = test system: PC-3; assay: Cytotoxicity against human PC3 cells assessed as cell survival at 50 uM after 48 hrs by Hoechst 33342 staining based assay relative to control; type: functional; conditions: PC-3, 48 h, read-out: Survival
[15] = test system: MCF7; assay: Induction of apoptosis in human MCF7 cells harboring wild-type p53 assessed as increase in early apoptosis at 2 times IC50 after 24 hrs by YoPro/propidium iodide/Hoechst staining based assay; type: functional, cell-based
[16] = test system: MCF7; assay: Induction of apoptosis in human MCF7 cells harboring wild-type p53 assessed as upregulation of p21 measured after 48 hrs by Hoechst staining based fluorescence assay; type: functional, cell-based
[17] = test system: HaCaT; assay: Cytotoxicity against human HaCaT cells assessed as cell survival at 50 uM after 48 hrs by Hoechst 33342 staining based assay relative to control; type: functional; conditions: read-out: Survival
[18] = test system: HCT-116; assay: Induction of apoptosis in human HCT116 cells harboring wild-type p53 assessed as increase in early apoptosis at 2 times IC50 after 48 hrs by YoPro/propidium iodide/Hoechst staining based assay; type: functional, cell-based
[19] = test system: PC-3; assay: Induction of apoptosis in human PC3 cells harboring p53 mutant assessed as increase in cleaved caspase3 at 2 times IC50 after 48 hrs by Hoechst staining based assay; type: functional, cell-based
[20] = test system: MCF7; assay: Induction of apoptosis in human MCF7 cells harboring wild-type p53 assessed as increase in late apoptosis at 2 times IC50 after 24 hrs by YoPro/propidium iodide/Hoechst staining based assay; type: functional, cell-based
[21] = test system: MDA-MB-231; assay: Induction of apoptosis in human MDA-MB-231 cells harboring p53 mutant assessed as increase in late apoptosis at 2 times IC50 after 24 hrs by YoPro/propidium iodide/Hoechst staining based assay; type: functional, cell-based
[22] = test system: MDA-MB-231; assay: Cytotoxicity against human MDA-MB-231 cells assessed as cell survival at 50 uM after 48 hrs by Hoechst 33342 staining based assay relative to control; type: functional; conditions: MDA-MB-231, 48 h, read-out: Survival
[23] = test system: HCT-116; assay: Induction of apoptosis in human HCT116 cells harboring wild-type p53 assessed as increase in cleaved caspase3 at 2 times IC50 after 48 hrs by Hoechst staining based assay; type: functional, cell-based
[24] = test system: PC-3; assay: Induction of apoptosis in human PC3 cells harboring p53 mutant assessed as upregulation of cyclinB1 after 48 hrs by Hoechst staining based assay; type: functional, cell-based
[25] = test system: MCF7; assay: Induction of apoptosis in human MCF7 cells harboring wild-type p53 assessed as upregulation of cyclinB1 measured after 18 hrs by Hoechst staining based assay; type: functional, cell-based
[26] = test system: NCI-H727; assay: Cytotoxicity against human NCI-H727 cells assessed as cell viability after 48 hrs by Hoechst 33342 staining based assay; type: functional; conditions: NCI-H727, 48 h
[27] = test system: PC-3; assay: Cytotoxicity against human PC3 cells assessed as cell viability after 48 hrs by Hoechst 33342 staining based assay; type: functional; conditions: PC-3, 48 h
[28] = Selectivity index, ratio of IC50 for human fibroblasts to IC50 for human HuH7 cells
[29] = Selectivity index, ratio of IC50 for human fibroblasts to IC50 for human HCT116 cells
[30] = test system: Huh-7; assay: Cytotoxicity against human HuH7 cells assessed as cell viability after 48 hrs by Hoechst 33342 staining based assay; type: functional; conditions: Huh-7, 48 h
[31] = test system: MCF7; assay: Cytotoxicity against human MCF7 assessed as cell viability after 48 hrs by Hoechst 33342 staining based assay; type: functional; conditions: MCF7, 48 h
[32] = Selectivity index, ratio of IC50 for human fibroblasts to IC50 for human PC3 cells
[33] = Selectivity index, ratio of IC50 for human fibroblasts to IC50 for human Caco2 cells
[34] = test system: Fibroblast; assay: Cytotoxicity against human fibroblasts assessed as cell viability after 48 hrs by Hoechst 33342 staining based assay
[35] = test system: MDA-MB-231; assay: Cytotoxicity against human MDA-MB-231 cells assessed as cell viability after 48 hrs by Hoechst 33342 staining based assay; type: functional; conditions: MDA-MB-231, 48 h
[36] = Selectivity index, ratio of IC50 for human fibroblasts to IC50 for human RL cells
[37] = Selectivity index, ratio of IC50 for human fibroblasts to IC50 for human HaCaT cells
[38] = Selectivity index, ratio of IC50 for human fibroblasts to IC50 for human MDA-MB-231 cells
[39] = test system: RL; assay: Cytotoxicity against human RL assessed as cell viability after 48 hrs by Hoechst 33342 staining based assay; type: functional
[40] = test system: HCT-116; assay: Cytotoxicity against human HCT116 cells assessed as cell viability after 48 hrs by Hoechst 33342 staining based assay; type: functional; conditions: HCT-116, 48 h
[41] = test system: HaCaT; assay: Cytotoxicity against human HaCaT cells assessed as cell viability after 48 hrs by Hoechst 33342 staining based assay; type: functional
[42] = Selectivity index, ratio of IC50 for human fibroblasts to IC50 for human MCF7 cells
[43] = Selectivity index, ratio of IC50 for human fibroblasts to IC50 for human NCI-H727 cells
[44] = test system: Caco-2; assay: Cytotoxicity against human Caco2 cells assessed as cell viability after 48 hrs by Hoechst 33342 staining based assay; type: functional; conditions: Caco-2, 48 h

For `COc1cc(O)c(C(=O)/C=C/c2ccc(Br)cc2)c(OC)c1`, the viability at 50 µM [1] was 72%, the viability at 50 µM [2] was > 80% and the viability at 50 µM [3] was > 80%. The Activity [4] was “inactive”, the Activity [5] was “inactive” and the viability at 50 µM [6] was > 80%. For the same molecule, the Activity [7] was “inactive”, the Activity [8] was “inactive” and the Activity [9] was “inactive”. For the same molecule, the Activity [10] was “inactive”, the Activity [11] was “inactive” and the Activity [12] was “inactive”. The viability at 48 h, 50 µM [13] was > 80%, the viability at 50 µM [14] was 58% and the Activity [15] was “inactive”. The Activity [16] was “inactive”, the viability at 50 µM [17] was 66% and the Activity [18] was “inactive”. The Activity [19] was “inactive”, the Activity [20] was “inactive” and the Activity [21] was “inactive”. The viability at 50 µM [22] was > 80%, the Activity [23] was “inactive” and the Activity [24] was “inactive”. The Activity [25] was “inactive”.
For `COc1cc(OC)c(C(=O)/C=C/c2ccccc2OC)c(OC)c1`, the viability at 50 µM [1] was 1%, the viability at 50 µM [2] was 0% and the viability at 50 µM [3] was 5%. It also gave a pIC50 [26] of 5.40, a viability at 50 µM [6] of 6% and a pIC50 [27] of 5.09. For the same molecule, the “Ratio IC50” value [28] was 0.8, the “Ratio IC50” value [29] was 2 and the pIC50 [30] was 5.01. The pIC50 [31] was 5.05, the “Ratio IC50” value [32] was 1 and the “Ratio IC50” value [33] was 1.8. The pIC50 [34] was 5.09, the pIC50 [35] was 4.89 and the viability at 48 h, 50 µM [13] was 77%. The viability at 50 µM [14] was 32%, the “Ratio IC50” value [36] was 0.9 and the viability at 50 µM [17] was 23%. For the same molecule, the “Ratio IC50” value [37] was 0.9, the “Ratio IC50” value [38] was 0.6 and the pIC50 [39] was 5.05. The pIC50 [40] was 5.38, the pIC50 [41] was 5.06 and the viability at 50 µM [22] was 11%. For the same molecule, the “Ratio IC50” value [42] was 0.9, the “Ratio IC50” value [43] was 2.1 and the pIC50 [44] was 5.35.
